The text below walks through data of patent US10538491B2, “4,5-substituted picolinamide and picolinonitrile metabotropic glutamate receptor 2 negative allosteric modulators” (Vanderbilt University, priority 2015, dated 2020).

The IC50 is the concentration that inhibits the measured activity by half.

The target in the experiment is rat mGlu2 (Rattus norvegicus (Rat), UniProt P31421). In words: mGlu2 Ca2+ flux assay. Conditions: for IC50: Gα15 HEK293 cells stably expressing rat mGlu2, glutamate EC80, >10,000 = no plateau, >30,000 = no measurable activity; for rat mGlu2 Glu max / remaining activity at 30 µM: amplitude of response in the presence of 30 μM test compound as percentage of maximal response to glutamate; for remaining activity at 30 µM: read-out: rat mGlu2 Glu max. It counts as cell-based. In short, it runs like this:
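Gα15 HEK293 cells stably expressing rat mGlu2, Fluo-4 loaded; compound added, then glutamate at EC20 after 2.3 min and EC80 afterward, calcium flux read as F/F0. Peak amplitude around EC80 addition normalized to glutamate max; IC50 by unconstrained 4-parameter fit, top concentration 30 μM.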
(In general: Calcium assays in cells follow changes in intracellular calcium, usually with a dye or a luminescent sensor.)

Chain of rat mGlu2 (P31421 19-872): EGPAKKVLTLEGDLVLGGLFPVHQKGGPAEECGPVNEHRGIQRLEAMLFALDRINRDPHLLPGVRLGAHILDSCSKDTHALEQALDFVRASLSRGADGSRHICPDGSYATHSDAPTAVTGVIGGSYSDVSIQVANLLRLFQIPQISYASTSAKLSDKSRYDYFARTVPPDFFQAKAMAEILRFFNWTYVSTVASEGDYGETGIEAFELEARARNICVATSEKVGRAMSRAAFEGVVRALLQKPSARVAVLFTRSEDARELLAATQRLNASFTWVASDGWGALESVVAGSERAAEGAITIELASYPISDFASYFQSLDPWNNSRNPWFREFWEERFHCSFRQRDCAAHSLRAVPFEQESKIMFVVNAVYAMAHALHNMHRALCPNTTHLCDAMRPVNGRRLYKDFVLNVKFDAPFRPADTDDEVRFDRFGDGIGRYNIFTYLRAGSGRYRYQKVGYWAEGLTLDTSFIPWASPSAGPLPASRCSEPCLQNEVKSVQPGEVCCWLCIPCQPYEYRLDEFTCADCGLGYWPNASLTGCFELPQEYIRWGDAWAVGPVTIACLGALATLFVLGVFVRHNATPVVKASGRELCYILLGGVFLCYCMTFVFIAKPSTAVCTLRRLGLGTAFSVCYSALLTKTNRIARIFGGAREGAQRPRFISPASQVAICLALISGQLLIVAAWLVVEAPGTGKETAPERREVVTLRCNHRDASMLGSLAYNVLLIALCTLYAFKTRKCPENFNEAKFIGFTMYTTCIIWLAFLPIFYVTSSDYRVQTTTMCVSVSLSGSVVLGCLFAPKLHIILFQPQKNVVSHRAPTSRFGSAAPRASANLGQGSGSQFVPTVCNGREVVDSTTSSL

Regarding `Cc1ccc(OCCOc2cnc(C(N)=O)cc2-c2ccc(F)cc2)cn1` [Compound 114], the concentration for half-maximal inhibition (IC50) stood at 0.738 µM and the “rat mGlu2 Glu max” value is 1.80%. Regarding `NC(=O)c1cc(-c2ccc(F)cc2)c(OCCOc2ccc(C(F)(F)F)nc2)cn1` [Compound 115, 4-(4-fluorophenyl)-5-(2-((6-(trifluoromethyl)pyridin-3-yl)oxy)ethoxy)picolinamide], half-maximal inhibition (IC50) was put at 1.31 µM and the remaining activity at 30 µM worked out at 3.64%.

As for `NC(=O)c1cc(-c2ccc(F)cc2)c(OCCOc2ccnc(C(F)(F)F)c2)cn1` [Compound 116, 4-(4-fluorophenyl)-5-(2-((2-(trifluoromethyl)pyridin-4-yl)oxy)ethoxy)picolinamide], it took 0.242 ± 0.083 µM to reach half-maximal inhibition (IC50) and the remaining activity at 30 µM came to 1.51 ± 0.16%. `NC(=O)c1cc(-c2ccc(F)cc2)c(OCCOc2ccnc(F)c2)cn1` [Compound 117, 4-(4-fluorophenyl)-5-(2-((2-fluoropyridin-4-yl)oxy)ethoxy)picolinamide]: the IC50 turned out to be 0.615 µM and the remaining activity at 30 µM worked out at 1.02%.

As for `Cc1cc(OCCOc2cnc(C(N)=O)cc2-c2ccc(F)cc2)ccn1` [Compound 118, 4-(4-fluorophenyl)-5-(2-((2-methylpyridin-4-yl)oxy)ethoxy)picolinamide], 0.41 µM corresponded to half-maximal inhibition (IC50) and the remaining activity at 30 µM amounted to 1.16%. The matching figures for `Cc1ncc(OCCOc2cnc(C(N)=O)cc2-c2ccc(F)cc2)cn1` [Compound 119, 4-(4-fluorophenyl)-5-(2-((2-methylpyrimidin-5-yl)oxy)ethoxy)picolinamide]: > 10 µM and 20.3%. The matching figures for `CC(COc1ccnc(C(F)(F)F)c1)Oc1cnc(C(N)=O)cc1-c1ccc(F)cc1` (stereo not drawn) [Compound 120, 4-(4-fluorophenyl)-5-((1-((2-(trifluoromethyl)pyridin-4-yl)oxy)propan-2-yl)oxy)picolinamide]: 0.483 µM and 1.72%. The like results for `Cc1ccc(OC(C)COc2cnc(C(N)=O)cc2-c2ccc(F)cc2)cn1` (stereo not drawn) [Compound 121, 4-(4-fluorophenyl)-5-(2-((6-methylpyridin-3-yl)oxy)propoxy)picolinamide] were, in that order, 2.13 µM and 1.66%. `Cc1ncc(OC(C)COc2cnc(C(N)=O)cc2-c2ccc(F)cc2)cn1` (stereo not drawn) [Compound 122, 4-(4-fluorophenyl)-5-(2-((2-methylpyrimidin-5-yl)oxy)propoxy)picolinamide]: the IC50 was > 10 µM and the remaining activity at 30 µM turned out to be 8.04%.

For `CC(COc1cnc(C(N)=O)cc1-c1ccc(F)cc1)Oc1cccnc1` (stereo not drawn) [Compound 123, 4-(4-fluorophenyl)-5-(2-(pyridin-3-yloxy)propoxy)picolinamide], 1.51 µM corresponded to half-maximal inhibition (IC50) and the remaining activity at 30 µM is 0.37%. The like results for `CC(COc1cnc(C(N)=O)cc1-c1ccc(F)cc1)Oc1ccnc(C(F)(F)F)c1` (stereo not drawn) [Compound 124, 4-(4-fluorophenyl)-5-(2-((2-(trifluoromethyl)pyridin-4-yl)oxy)propoxy)picolinamide] were, in that order, 0.835 µM and 0.75%. Consider `Cc1ncc(OCCCOc2cnc(C(N)=O)cc2-c2ccc(F)cc2)cn1` [Compound 125, 4-(4-fluorophenyl)-5-(3-((2-methylpyrimidin-5-yl)oxy)propoxy)picolinamide], for which the IC50 is > 10 µM and the remaining activity at 30 µM was 35.1%.

Consider `NC(=O)c1cc(-c2ccc(F)cc2)c(OCCCOc2ccc(C(F)(F)F)nc2)cn1` [Compound 126], for which the IC50 came out at 2.94 µM and the “rat mGlu2 Glu max” value is reported as 5.52%. In the case of `NC(=O)c1cc(-c2ccc(F)cc2)c(OCCCOc2ccnc(C(F)(F)F)c2)cn1` [Compound 127, 4-(4-fluorophenyl)-5-(3-((2-(trifluoromethyl)pyridin-4-yl)oxy)propoxy)picolinamide], it took 1.59 µM to reach half-maximal inhibition (IC50) and the remaining activity at 30 µM was found to be 2.03%. Regarding `NC(=O)c1cc(-c2ccc(F)cc2)c(OCCCOc2cccnc2)cn1` [Compound 128, 4-(4-fluorophenyl)-5-(3-(pyridin-3-yloxy)propoxy)picolinamide], inhibition was half-maximal at 3.78 µM (IC50) and the remaining activity at 30 µM was found to be 2.52%.

In the case of `Cc1ccc(OCCCOc2cnc(C(N)=O)cc2-c2ccc(F)cc2)cn1` [Compound 129], the IC50 amounted to 2.87 µM and the “rat mGlu2 Glu max” value came to 2.91%. On to `NC(=O)c1cc(-c2ccc(F)cc2)c(OCCOCc2ccccc2)cn1` [Compound 130, 5-(2-(benzyloxy)ethoxy)-4-(4-fluorophenyl)picolinamide], for which half-maximal inhibition (IC50) required 2.25 µM and the remaining activity at 30 µM was 9.91%. Regarding `CN(CCOCc1cncc(F)c1)c1cnc(C(N)=O)cc1-c1ccc(F)cc1` [Compound 131, 4-(4-fluorophenyl)-5-((2-((5-fluoropyridin-3-yl)methoxy)ethyl)(methyl)amino)picolinamide], the IC50 was found to be 5.77 µM and the remaining activity at 30 µM is 2.62%. The like results for `NC(=O)c1cc(-c2ccc(F)cc2)c(NCC2CCOCC2)cn1` [Compound 132, 4-(4-fluorophenyl)-5-(((tetrahydro-2H-pyran-4-yl)methyl)amino)picolinamide] were, in that order, 1.05 µM and -1.48%. The like results for `NC(=O)c1cc(-c2ccc(F)cc2)c(NCCN2CCOCC2)cn1` [Compound 133, 4-(4-fluorophenyl)-5-((2-morpholinoethyl)amino)picolinamide] were, in that order, 6.54 µM and -4.31%. Consider `CC(CN1CCOCC1)Nc1cnc(C(N)=O)cc1-c1ccc(F)cc1` (stereo not drawn) [Compound 134, 4-(4-fluorophenyl)-5-((1-morpholinopropan-2-yl)amino)picolinamide], for which the IC50 came to 2.71 µM and the remaining activity at 30 µM was -3.71%. The like results for `CC(CNc1cnc(C(N)=O)cc1-c1ccc(F)cc1)N1CCOCC1` (stereo not drawn) [Compound 135, 4-(4-fluorophenyl)-5-((2-morpholinopropyl)amino)picolinamide] were, in that order, 5.7 µM and 1.19%. Turning to `CN(CCN1CCOCC1)c1cnc(C(N)=O)cc1-c1ccc(F)cc1` [Compound 136, 4-(4-fluorophenyl)-5-(methyl(2-morpholinoethyl)amino)picolinamide], the IC50 is > 10 µM and the remaining activity at 30 µM was 31%.

On to `NC(=O)c1cc(-c2ccc(F)cc2)c(NCCCN2CCOCC2)cn1` [Compound 137, 4-(4-fluorophenyl)-5-((3-morpholinopropyl)amino)picolinamide], for which 9.87 µM corresponded to half-maximal inhibition (IC50) and the remaining activity at 30 µM is -13.5%. For `NC(=O)c1cc(-c2ccc(F)cc2)c(N2CCC(Oc3ccnc(C(F)(F)F)c3)CC2)cn1` [Compound 138, 4-(4-fluorophenyl)-5-(4-((2-(trifluoromethyl)pyridin-4-yl)oxy)piperidin-1-yl)picolinamide], the half-inhibitory concentration (IC50) is > 10 µM. With `Cc1ccc(OC2CCN(c3cnc(C(N)=O)cc3-c3ccc(F)cc3)CC2)cn1` [Compound 139, 4-(4-fluorophenyl)-5-(4-((6-methylpyridin-3-yl)oxy)piperidin-l-yl)picolinamide], the midpoint of inhibition, the IC50, lay at 9.59 µM and the “rat mGlu2 Glu max” value is 7.04%. `NC(=O)c1cc(-c2ccc(F)cc2)c(N2CCC(Oc3cccnc3)CC2)cn1` [Compound 140, 4-(4-fluorophenyl)-5-(4-(pyridin-3-yloxy)piperidin-1-yl)picolinamide]: the IC50 was > 10 µM and the remaining activity at 30 µM stood at 29.8%. For the compound `NC(=O)c1cc(-c2ccc(F)cc2)c(N2CC(Oc3ccc(C(F)(F)F)nc3)C2)cn1` [Compound 141, 4-(4-fluorophenyl)-5-(3-((6-(trifluoromethyl)pyridin-3-yl)oxy)azetidin-1-yl)picolinamide], the concentration for half-maximal inhibition (IC50) is > 10 µM and the remaining activity at 30 µM is 53.9%. Consider `Cc1ccc(OC2CN(c3cnc(C(N)=O)cc3-c3ccc(F)cc3)C2)cn1` [Compound 142, 4-(4-fluorophenyl)-5-(3-((6-methylpyridin-3-yl)oxy)azetidin-1-yl)picolinamide], for which the IC50 is 1.28 µM and the remaining activity at 30 µM was 2.35%.

With `NC(=O)c1cc(-c2ccc(F)cc2)c(N2CC(Oc3cccnc3)C2)cn1` [Compound 143, 4-(4-fluorophenyl)-5-(3-(pyridin-3-yloxy)azetidin-1-yl)picolinamide], the IC50 is 2.03 µM and the remaining activity at 30 µM was 7.01%. `NC(=O)c1cc(-c2ccc(F)cc2)c(N2CCC(Oc3ccnc(C(F)(F)F)c3)C2)cn1` (stereo not drawn) [Compound 144, 4-(4-fluorophenyl)-5-(3-((2-(trifluoromethyl)pyridin-4-yl)oxy)pyrrolidin-1-yl)picolinamide]: the IC50 was determined as 7.45 µM and the remaining activity at 30 µM was 1.28%. The matching figures for `N#Cc1cccc(COc2cnc(C(N)=O)cc2-c2ccc(F)cc2)c1` [Compound 145, 5-((3-Cyanobenzyl)oxy)-4-(4-fluorophenyl)picolinamide]: 0.429 µM and 1.5%.

In the case of `N#Cc1cc(F)cc(COc2cnc(C(N)=O)cc2-c2ccc(F)cc2)c1` [Compound 146, 5-((3-cyano-5-fluorobenzyl)oxy)-4-(4-fluorophenyl)picolinamide], the IC50 was found to be 0.944 µM and the remaining activity at 30 µM is 0.48%.

As for `N#Cc1ccc(F)c(COc2cnc(C(N)=O)cc2-c2ccc(F)cc2)c1` [Compound 147, 5-((5-cyano-2-fluorobenzyl)oxy)-4-(4-fluorophenyl)picolinamide], inhibition was half-maximal at 0.313 µM (IC50) and the remaining activity at 30 µM was 0.73%. The matching figures for `N#Cc1cc(COc2cnc(C(N)=O)cc2-c2ccc(F)cc2)ccc1F` [Compound 148, 5-((3-cyano-4-fluorobenzyl)oxy)-4-(4-fluorophenyl)picolinamide]: 1.68 µM and 0.43%.
